In patent publication US20220024910A1 (published 2022):

- melting point: 278 to 280 °C
SMILES: Cc1c(C(=O)NN2CCS(=O)(=O)CC2)nn(-c2ccc(Cl)cc2Cl)c1-c1ccc(C#CCCC#N)cc1
